Data set [1] has as its target T1, PAF receptors of macrophages from mouse peritoneal cavity (Mus musculus, UniProt Q62035).
T1 construct: The cells in peritoneal cavity were collected after injection for 3-4 days; endogenous in cells; host or cells: adherent peritoneal macrophages of C57BL/6 mice (primary)
Briefly: competitive binding of [3H]-PAF to its receptors of macrophages from mouse peritoneal cavity. As to conditions: 4° C, 150 min, read-out: Ki, competition with [3H]-PAF binding. On the procedure:
4% of sodium mercaptoethanol was injected into C57BL/6 mouse peritoneal cavity to induce macrophages. The cells in peritoneal cavity were collected after injection for 3-4 days. 500 μl of suspension (5×10^5cells·ml^−1) was inoculated into 24-well culture plate which was placed into the incubator with 5% CO2 at 37° C for 2.5 hr. The non-adherent cells and serum in media were discarded. 490 μl of Tyrode-Hepes solution and 5 μl of [^3H]-PAF (final concentration: 2.8 nmol·L^−1) were added into each well. 5 μl of unlabeled PAF (5 μmol·L^1) was added into the well for the nonspecific binding. The series concentrations of compound were added into the well for the competitive binding and the corresponding volume of solvent was added into the wells for the total binding or the nonspecific binding. The reaction fluid was incubated at 4° C for 150 min and rinsed to wipe off the free labeled ligand. 300 μl of NaOH (0.3 mol·L^−1) was added to lyse the cells. The lysate fluid was transferred into a vial in which 7 ml of scintillation solution was added. The radioactivity strength was measured by scintillation counter.

In data set [2] the test system is mouse paw swelling induced by carrageenan. Briefly: mouse paw swelling induced by carrageenan. Format: in vivo. The conditions noted are these: orally, 50 mg·kg^−1, Kunming mice. On the procedure:
Kunming mice (male, 18-22 g) were randomly divided into two groups (treatment and control) with 10 animals for each group. The animals were orally administrated with compounds or solvent, respectively. 1 hr later, 50 μl of 1% carrageenan was intracutaneously injected into the sole of right posterior foot. After 4 hr the animals were sacrificed by displacing cervical vertebra. The two paws were cut off at ankle joint and weighed. The swelling was evaluated by the difference of the weights of two paws.

Data set [3] deals with mouse ear edema induced by croton oil. Description: mouse ear edema induced by croton oil. Format: in vivo. As to conditions: orally, 50 mg·kg^−1, Kunming mice. On the procedure: Kuming mice (male, 18-22 g) were randomly divided into two groups (treatment and control) with 10 animals for each group. The animals were orally administrated with compounds or solvent, respectively. 1 hr later, 50 μl of 2% croton oil was smeared on the two sides of mouse left ear. After 4 hr the mice were sacrificed by cervical vertebra displacement. The two ears were cut off and the central sections were excised using a punch with a diameter of 8 mm and weighed. Edema was quantified as the weight difference between the two sections.

The test system of data set [4] is production of NO in macrophages from mouse peritoneal cavity. Description: production of NO in macrophages from mouse peritoneal cavity (LPS and PAF). Format: cell-based. The conditions noted are these: Macrophage, 24 h, read-out: IC50, inhibition of the production of NO. Here is the method: 4% of sodium mercaptoethanol was injected into C57BL/6 mouse peritoneal cavity to induce macrophages. The cells in peritoneal cavity were collected after injection for 3-4 days. 500 μl of cells were inoculated in the well of 24 wells plate which was placed in the CO2 incubator at 37° C. for 2.5 hr to make the cells adherent. The cells were rinsed by 1640 culture media. 495 μl of 1640 media containing irritant and 5 μl the compound or solvent were added into each well. The plate was incubated for 24 hr. The supernatant was taken out and mixed with the same volume of Griess agent. The reaction fluid was kept at room temperature for 10 min and the optical density was measured at 550 nm. The numbers read was transferred into the content of NO.

Data set [5] relates to macrophages from mouse peritoneal cavity. Briefly: chemotaxis of macrophages from mouse peritoneal cavity induced by PAF. As to conditions: Macrophage, 2 hr, read-out: IC50, inhibition of chemotaxis. Format: cell-based. Here is the method:
4% of sodium mercaptoethanol was injected into C57BL/6 mouse peritoneal cavity to induce macrophages. The cells in peritoneal cavity were collected after injection for 3-4 days. 27 μl of irritant was added into the well at low part of the chemotaxis plate. The filter membrane was covered on the wells and the top part of the plate was assembled on the filter. 55 μl of cells suspension with various concentrations of the compounds or solvent was added into the well at top part of the plate. The plate was placed into incubater with 5% CO2 at 37° C. for 2 hr. The filter was taken out, stained by hematoxylin and dehydrated. The cells migrated into the other side of the filter was counted by microscope.

Data set [6] concerns production of TNF-α by macrophages from mouse peritoneal cavity. Briefly: production of TNF-α by macrophages from mouse peritoneal cavity (LPS, L929 bioassay). Format: cell-based. The conditions noted are these: Macrophage, 24 h, read-out: IC50, inhibition of the production of TNF-α. On the procedure: The macrophages from mouse peritoneal cavity were prepared as described before. 500 μl of cells were inoculated in 48-well plate which was incubated with 5% CO2 at 37° C. for 2.5 hr. The compounds and LPS (final concentration: 10 μg·ml^−1) were added into each well of the plate. After incubating for 24 hr the supernatant was collected. The content of TNF-α was determined by following method. 100 μl of L929 cells (2×10^5cells·ml^−1) with 100 μl of RPMI-1640 or supernatant collected above were inoculated into 96-well plate which incubated under 5% CO2 at 37° C. for 20 hr. The supernatant was discarded. 200 μl of 0.5% crystal violet was added into each well. 10 min later crystal violet outside of the cells was rinsed using normal saline. The cells were dried under room temperature. 100 μl of 10% SDS was added into each well. After the cells were lysed completely the optical density was measured at 570 nm. The well of 1640 media was as the control, The content of TNF-a was evaluated by the percentage of L929 cells survival.

The test system of data set [7] is cutaneous vascular permeability in mice induced by PAF. Briefly: increase of cutaneous vascular permeability in mice induced by PAF. As to conditions: orally, 50 mg·kg^−1, Kunming mice. Format: in vivo, mouse. Here is the method:
Kunming mice (male, 18-22 g) were randomly divided into two groups (treatment and control) with 10 animals for each group. The animals were orally administrated with the compounds or solvent, respectively. 1 hr later, 0.25 ml of 1% evans blue dye was injected into the tail vein. After 10 min, 0.1 ml of PAF (1×10^−8 mol·L^−1) was intracutaneously injected into the dorsal skin shaved. 1 hr later, the animals were sacrificed by cervical vertebra displacement. The skin with blue spot was cut off. The evans blue dye was extracted by 0.8 ml of mixed solution of acetone and normal saline (7:3). The supernatant was transferred into the 96-well plate. The optical density was measured at 620 nm.

Data set [8] concerns polymorphonuclear leucocytes from rat pleural cavity. Briefly: release of β-glucuronidase by polymorphonuclear leucocytes from rat pleural cavity in vitro (PAF as irritant). Format: cell-based. The conditions noted are these: for IC50: rat polymorphonuclear leucocytes. Here is the method: 1% carrageenan was injected into the right pleural cavity of Wistar rat to induce polymorphonuclear leucocytes. The cells was suspended in Dulbecoo's buffer at the concentration of 2.5×10^6 cells·ml^1. The fluid containing the compound or solvent and 250 μl of cells suspension were added in test tube and incubated in 37° C. waterbath for 15 min. Then 2.5 μl of cytochalasin B (1×10^−3 mol·L^−1) was added and the reaction was continued for 5 min. Then 2.5 μl of PAF (1×10^−4 mol·L^−1) was added and for another 5 min. The test tubes were put into ice bath to stop the reaction. The supernatant was isolated and used as the β-glucuronidase release fluid. 25 μl of the enzyme fluid, 25 μl of phenolphthalein-glucuronic acid (2.5 mmol·L^−1) and 100 μl of acetic acid buffer (0.1 mol·L^−1) were added into each well of 96-well plate which was placed into incubater and kept at 37° C.3 for 18 hr. 150 μl of NaOH (0.3 mol·L^−1) was added in each well to cease the reaction and the optical density was read at 550 nm.

The test system of the next data set is rat neutrophils. Briefly: chemotaxis of rat neutrophils in vitro. Format: cell-based. The conditions noted are these: Neutrophil, 4 hr, read-out: IC50, inhibition of chemotaxis. On the procedure: The blood was collected from rat common carotid artery and anticoagulated. The neutrophils was isolated by 5% glucose solution and lymphocyte separating medium. 27 μl of irritant was added into the well at low part of the chemotaxis plate. The filter membrane was covered on the wells and the top part of the plate was assembled on the filter. 50 μl of cells suspension with various concentrations of compound or solvent was added into the well at top part of the plate. The plate was incubated at 37° C. for 4 hr. The filter was taken out, stained by hematoxylin and dehydrated. The cells migrated into the other side of the filter was counted by microscope.

Data set [9] concerns mouse with arthritis induced by type III collagen. As to conditions: cited from earlier work.
A further data set relates to NF-κB, TNF-α mRNA. As to conditions: infected mice; cited from earlier work.
The subject of data set [10] is patients with rheumatoid arthritis. The conditions noted are these: after administration for 4 weeks; cited from earlier work.
Another data set concerns rat paw swelling. The conditions noted are these: induced by PAF, carrageenan, histamine, 5-serotonin; cited from earlier work.
Where [11] appears, read: Dose 1 × 10^−5 mol · L^−1, Irritant 2 × 10^−7 mol · L^−1.

Counter-ions that a name gives are not always drawn.

T1 sequence (Q62035 whole entry): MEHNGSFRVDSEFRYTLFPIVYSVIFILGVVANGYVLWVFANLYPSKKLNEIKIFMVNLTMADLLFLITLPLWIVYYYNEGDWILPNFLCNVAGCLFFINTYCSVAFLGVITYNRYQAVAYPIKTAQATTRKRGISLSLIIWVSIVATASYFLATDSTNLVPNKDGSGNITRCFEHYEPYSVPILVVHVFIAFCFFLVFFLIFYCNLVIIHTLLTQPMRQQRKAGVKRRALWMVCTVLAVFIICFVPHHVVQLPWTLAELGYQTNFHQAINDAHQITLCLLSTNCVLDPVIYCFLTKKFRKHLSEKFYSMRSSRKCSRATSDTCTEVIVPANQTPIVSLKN

Broadly, the Ki is a dissociation constant, usually derived from enzyme kinetics or from competition with a known ligand. For orientation: IC50 means the concentration that gives 50% inhibition. As to `CCOc1cc(C=CC(=O)CCN2CC(C)OC(C)C2)ccc1O` (stereo not drawn) [Compound 37, 5-(2,6-Dimethylmorpholinyl)-1-(3-ethoxy-4-hydroxyphenyl)-1-penten-3-one hydrochloride], in data set [1], the Ki worked out at 68300 nM. In addition, in [2], the “Inhibition (%) of mouse paw swelling” value is 21.60%. Moreover, the “Inhibition (%) of mouse ear edema” value in data set [3] is given as 33.20%. The IC50 came out at 3690 nM in data set [4], 83.2 nM in [5], 2 nM in [6] and 1.23 nM in [8] (Leucocyte). Also, the “Inhibition (%) of increase of cutaneous vascular permeability” value in data set [7] is given as 38.70%. In addition, in [8] (setting [11]), the “Inhibition (%) of β-glucuronidase release” value worked out at 79.24%.

As to `CCOC(=O)C1CCCN(CCC(=O)C=Cc2ccc(Cl)cc2Cl)C1.Cl` (stereo not drawn) [Compound 16, 5-[(3-Ethoxycarbonyl)piperidyl]-1-(2,4-dichlorophenyl)-1-penten-3-one hydrochloride], the “Inhibition (%) of mouse ear edema” value in [3] came to 29.05%. Further, the “Inhibition (%) of increase of cutaneous vascular permeability” value in [7] stood at 48.09%. Further, the “Inhibition (%) of β-glucuronidase release” value in data set [8] (Dose 2 × 10^−6 mol · L^−1, Irritant 1 × 10^−7 mol · L^−1) is 84.38%. This compound also gave an IC50 in data set [8] of 22.4 nM.

As to `COc1ccc(C=CC(=O)CCN2CCC(Cc3ccccc3)CC2)cc1` [Compound 22a, 5-[(4-Benzyl)piperidyl]-1-(4-methoxyphenyl)-1-penten-3-one hydrochloride], the “Inhibition (%) of mouse paw swelling” value in data set [2] was 23.33%. Also, the “Inhibition (%) of mouse ear edema” value in data set [3] is listed as 31.22%. Further, the “Inhibition (%) of increase of cutaneous vascular permeability” value in [7] came to 51.14%. Further, the results for the IC50 (with rat neutrophils; in [8] (Leucocyte)) were 4.05 nM and 562 nM, respectively. Besides, the “Inhibition (%) of β-glucuronidase release” value in data set [8] (Dose 1 × 10^−5 mol · L^−1, Irritant 1 × 10^−6 mol · L^−1) was determined as 73.17%.

For orientation: melting point means the temperature, or range, at which the solid turns liquid. Take `COc1ccc(C=CC(=O)CCN2CC(C)OC(C)C2)cc1O` (stereo not drawn) (as salt: hydrochloride) [Compound 36, 5-(2,6-Dimethylmorpholinyl)-1-(3-hydroxy-4-methoxyphenyl)-1-penten-3-one hydrochloride]: the melting point fell in the range of 194 to 196 °C.

On to `O=C(C=Cc1ccc(C(F)(F)F)cc1)CCN1CCC(Cc2ccccc2)CC1` (as salt: hydrochloride) [Compound 20, 5-[(4-Benzyl)piperidyl]-1-(4-trifluoromethylphenyl)-1-penten-3-one hydrochloride], for which the melting point was 175 to 179 °C.

`CCOc1cc(C=CC(=O)CCN2CC(C)OC(C)C2)ccc1O` (stereo not drawn) (as salt: hydrochloride) [Compound 37, 5-(2,6-Dimethylmorpholinyl)-1-(3-ethoxy-4-hydroxyphenyl)-1-penten-3-one hydrochloride] displayed a melting point of 198 to 201 °C.

For `COc1ccc(NC(=S)N2CCc3c(sc4c3C(c3ccccc3Cl)=NCc3nnc(C)n3-4)C2)cc1` [BN50730], in [9], the “consumption of proteoglycan in cartilage” value is “decrease”, the joint swelling entry is on record as “significantly inhibit” and the “precipitation of fibronectin in cartilage” value is given as “decrease”. In the data set on NF-κB, TNF-α mRNA, the “early activity of NF-κB” value is “reduce” and the “expression of TNF-α mRNA” value is “reduce”. Further, the “symptom of patients with rheumatoid arthritis” value in data set [10] was “significantly improves”.

Take `COc1ccc(C=CC(=O)CCN2CC(C)OC(C)C2)cc1O` (stereo not drawn) [Compound 36, 5-(2,6-Dimethylmorpholinyl)-1-(3-hydroxy-4-methoxyphenyl)-1-penten-3-one hydrochloride]: the Ki in data set [1] was 48100 nM. Also, in [2], the “Inhibition (%) of mouse paw swelling” value came to 28.00%. For the same compound, the IC50 in data set [4] came out at 3230 nM; in data set [5], 44.8 nM; in data set [6], 45.8 nM; in data set [8] (Leucocyte), 0.555 nM. For the same compound, the “Inhibition (%) of increase of cutaneous vascular permeability” value in data set [7] amounted to 33.50%. The “Inhibition (%) of β-glucuronidase release” value in data set [8] (setting [11]) is listed as 129.72%.

`CCCCCCCCCCCCCCCCCCNC(=O)OCC(COC(=O)N(Cc1cccc[n+]1CC)C(C)=O)OC` (stereo not drawn) [CV-6209]: in the data set on rat paw swelling, the rat paw swelling entry is reported as “inhibit”.

`COc1ccc(C=CC(=O)CCN2CCC(Cc3ccccc3)CC2)cc1` (as salt: hydrochloride) [Compound 22a, 5-[(4-Benzyl)piperidyl]-1-(4-methoxyphenyl)-1-penten-3-one hydrochloride] gave a melting point of 180 to 184 °C.

With `CCOC(=O)C1CCN(CCC(=O)/C=C/c2ccc(Cl)cc2)CC1` (as salt: hydrochloride) [Compound 3, 5-[(4-Ethoxycarbonyl)piperidyl]-1-(4-chlorophenyl)-1-penten-3-one hydrochloride], the melting point is 172 to 174 °C.

(Values after patent publication US8524744B2, “Arylamine ketones, their preparation methods, the pharmaceutical composition containing them and their use” (Institute of Mataria Medica, Chinese Academy of Medical …, priority 2004, dated 2013).)
